Measurements: patent EP1146866B1, “A METHOD FOR TREATING PATIENTS WITH ACNE BY ADMINISTERING A CYCLIC GMP PDE INHIBITOR” (priority 1999, dated 2000)

Columns and labels:
PDE5 = PDE5 (Homo sapiens, UniProt O76074); experiment: cGMP-specific PDE inhibition activity (3H cyclic GMP substrate); format: biochemical
Protocol: (§1) cGMP-specific phosphodiesterase activity can be determined using methods known in the art, such as a method using radioactive ^3H cyclic GMP (cyclic 3',5'-guanosine monophosphate) as the substrate for PDE5 enzyme (Thompson, W.J., Teraski, W.L., Epstein, P.M., Strada, S.J., Advances in Cyclic Nucleotide Research, 10:69-92, 1979. Using such techniques, the values of cGMP-specific inhibition set forth in Table 1 were determined for the compounds above: TABLE 1

PDE2 = PDE2 (Homo sapiens, UniProt O00408); experiment: cGMP-stimulated PDE inhibition activity; format: biochemical
Chain of PDE2 (O00408 whole entry): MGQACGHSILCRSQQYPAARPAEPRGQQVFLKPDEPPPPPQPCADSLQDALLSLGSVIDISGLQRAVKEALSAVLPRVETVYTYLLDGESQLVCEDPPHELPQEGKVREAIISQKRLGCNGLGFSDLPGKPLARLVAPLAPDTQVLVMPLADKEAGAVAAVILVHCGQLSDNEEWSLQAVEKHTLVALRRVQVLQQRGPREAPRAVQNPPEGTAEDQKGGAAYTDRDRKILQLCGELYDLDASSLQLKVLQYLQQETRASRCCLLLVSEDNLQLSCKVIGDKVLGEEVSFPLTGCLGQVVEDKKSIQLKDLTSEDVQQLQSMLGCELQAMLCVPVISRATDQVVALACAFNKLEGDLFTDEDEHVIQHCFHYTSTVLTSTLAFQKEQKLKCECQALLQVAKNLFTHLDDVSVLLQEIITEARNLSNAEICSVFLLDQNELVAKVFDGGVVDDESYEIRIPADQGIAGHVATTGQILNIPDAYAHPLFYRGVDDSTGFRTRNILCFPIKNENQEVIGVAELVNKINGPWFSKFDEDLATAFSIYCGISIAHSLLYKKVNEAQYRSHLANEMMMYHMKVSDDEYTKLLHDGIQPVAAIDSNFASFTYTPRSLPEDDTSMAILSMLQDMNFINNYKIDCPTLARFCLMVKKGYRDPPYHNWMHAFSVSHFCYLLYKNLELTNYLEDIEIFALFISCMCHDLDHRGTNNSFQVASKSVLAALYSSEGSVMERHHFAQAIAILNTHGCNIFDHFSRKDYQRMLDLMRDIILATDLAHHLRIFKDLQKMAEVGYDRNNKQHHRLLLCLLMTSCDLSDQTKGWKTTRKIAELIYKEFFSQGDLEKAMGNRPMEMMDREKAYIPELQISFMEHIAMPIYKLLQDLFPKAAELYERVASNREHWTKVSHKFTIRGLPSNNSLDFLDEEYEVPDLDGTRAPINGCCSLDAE
Protocol: as §1
cGMP phosphodiesterase activity can be determined using the methods referenced in Example 5, above. Using such techniques, the IC50 value for the inhibition of PDE2 by the compound of Example 1, exisulind, was determined as shown in Table 2.

acne vulgaris = experiment: Clinical results with a patient with acne vulgaris; format: in vivo, human
Protocol: A patient with acne vulgaris was given a pharmaceutical composition containing 125 mg of a cGMP-specific PDE inhibitor, exisulind (the compound of Example 1), twice daily for 8 weeks. […] Since the patient was tolerating that daily dose quite well, their dose of exisulind was increased to 150 mg twice daily, for an additional 8 weeks.
The pharmaceutical formulation for the 150 mg-containing pharmaceutical composition taken by this patient contained exisulind (150 mg), lactose monohydrate (207 mg), croscarmellose sodium (15 mg), colloidal silicon dioxide (1 mg), magnesium stearate (6.3 mg), and sodium lauryl sulfate (0.7 mg) encapsulated in a # 1 gelatin capsule. The exisulind was obtained from Zambon Group, S.p.A., of Milan, Italy. The pharmaceutical formulation for the 125 mg containing composition was formulated with less exisulind, and more excipients to fill the capsule.

[1] = Clinical studies of exisulind for uses other than acne (tolerability); format: in vivo
Protocol: In studies with adult patients, patients with intact colons received exisulind at a dosage of 400 mg/day, and patients who had previously undergone a colectomy received exisulind at a dosage of 600 mg/day. In another study with adult patients, the patients received 500 mg/day of exisulind. In a study involving pediatric patients, the dosage of exisulind used ranged from 250 to 350 mg per day.
In these studies, exisulind is generally well tolerated in patients. […] The maximum tolerated dose (MTD) was determined to be 600 mg/day in patients with colectomies, and 400 mg/day in the group with intact colons. […] These elevations were completely reversible on stopping the drug. Additionally, after a patient with elevated liver enzymes stops receiving the drug for approximately one week, the patient can then safely resume treatment at the same or a lower therapeutic dose, i.e. the dosages mentioned above. The elevations seem to be dose related and have been seen mostly at doses above the maximum tolerated dose. […] Thirteen of those patients received exisulind for over three years.

SMILES | inhibition at 10 µM (PDE5) [%] | IC50 (PDE2) [µM] | patient's acne (acne vulgaris; 150 mg twice daily for an additional 8 weeks, end of second 8-week period) | adverse side effects reported by patient (acne vulgaris; after 125 mg then 150 mg twice daily, 8 weeks each) | manifestations of acne during continued treatment (acne vulgaris; continued on drug for six months) | patient's acne (intensity) (acne vulgaris; patient, 125 mg twice daily for 8 weeks) | maximum tolerated dose (MTD) ([1]; group with intact colons) [mg/day] | liver function tests ([1]; human, in vivo) | side effects in clinical studies ([1]; human, in vivo) | side effects on extended treatment ([1]; human, in vivo) | maximum tolerated dose (MTD) ([1]; patients with colectomies) [mg/day]
COC(=O)CC1=C(C)/C(=C/c2ccc(S(C)(=O)=O)cc2)c2ccc(F)cc21 [Example 2, α-(1-p-Methylsulfonylbenzylidene)-2-Methyl-5-Fluoro-3-Indenyl -Acetic Acid Methyl Ester] | 50 |  |  |  |  |  |  |  |  |  | 
CC1=C(CCO)c2cc(F)ccc2/C1=C\c1ccc(S(C)(=O)=O)cc1 [Example 3, (Z)-5-Fluoro-2-Methyl-1-(4-Methylsulfonylbenzylidene)-1H-3-Indenyl-(2-Hydroxy) Ethane] | 80 |  |  |  |  |  |  |  |  |  | 
CC1=C(CC(=O)O)c2cc(F)ccc2/C1=C\c1ccc(S(C)(=O)=O)cc1 [Example 1, α-(1-p-Methylsulfonylbenzylidene)-2-Methyl-5-Fluoro-3-Indenyl-Acetic Acid] | 39 | 300 | disappeared completely | no adverse side effects | without any significant manifestations of acne | decrease noticeably in intensity | 400 | moderate, reversible, asymptomatic elevation in liver function tests | no clinically relevant side effects reported | no such clinically significant side effects | 600
